20 compounds from ChEMBL document CHEMBL4368862, “Design, synthesis, and anticancer activity evaluation of irreversible allosteric inhibitors of the ubiquitin-conjugating enzyme Ube2g2” (Medchemcomm, 2018) can be followed below.

Experiment [1] concerns the target T1, Ubiquitin-conjugating enzyme E2 G2 (Homo sapiens) (UniProt P60604).
T1 sequence (whole entry): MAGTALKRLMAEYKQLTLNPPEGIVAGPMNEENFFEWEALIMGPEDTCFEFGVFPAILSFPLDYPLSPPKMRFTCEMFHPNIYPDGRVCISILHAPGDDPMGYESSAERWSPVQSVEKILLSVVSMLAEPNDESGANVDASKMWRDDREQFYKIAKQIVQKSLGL
Put plainly: Binding affinity to recombinant TEV cleavage site-fused-His6-tagged Ube2g2 (unknown origin) expressed in Escherichia coli Rosetta2 (DE3) assessed as molecular weight of compound-protein conjugate at 5 uL measured after overnight incubation at pH 8.5 by LC/MS analysis (reference value: 18491 Da).

Experiment [2] concerns the target T1, Ubiquitin-conjugating enzyme E2 G2 (Homo sapiens). The experiment can be described thus: Binding affinity to recombinant TEV cleavage site-fused-His6-tagged Ube2g2 (unknown origin) expressed in Escherichia coli Rosetta2 (DE3) assessed as compound-protein complex formation at 5 uL measured after overnight incubation at pH 7.4 by LC/MS analysis.
The target is the same in experiment [3]. Put plainly: Binding affinity to recombinant TEV cleavage site-fused-His6-tagged Ube2g2 (unknown origin) expressed in Escherichia coli Rosetta2 (DE3) assessed as modification of Cys48 residue by measuring molecular weight of compound-protein conjugate at 5 uL measured after overnight incubation at pH 8.5 by LC/MS analysis (reference value: 18491 Da).
The target is the same in experiment [4]. The experiment can be described thus: Binding affinity to recombinant TEV cleavage site-fused-His6-tagged Ube2g2 (unknown origin) expressed in Escherichia coli Rosetta2 (DE3) assessed as modification of Cys75 residue by measuring molecular weight of compound-protein conjugate at 5 uL measured after overnight incubation at pH 8.5 by LC/MS analysis (reference value: 18491 Da).

The target is the same in experiment [5]. The experiment can be described thus: Binding affinity to recombinant TEV cleavage site-fused-His6-tagged Ube2g2 (unknown origin) expressed in Escherichia coli Rosetta2 (DE3) assessed as modification of Cys89 residue by measuring molecular weight of compound-protein conjugate at 5 uL measured after overnight incubation at pH 8.5 by LC/MS analysis (reference value: 18491 Da).

Activity calls are given as the source filed them. The rule behind the calls is not given here.

For the compound `C=CCC(=O)N[C@@H](Cc1ccc(-c2cc(Cl)cc(Cl)c2)cc1)[C@H](O)[C@@H](O)C(=O)OCC`, the outcome in experiment [1] and in experiment [2] was inactive.
For the compound `C=CCC(=O)N[C@H](Cc1ccc(-c2cc(Cl)cc(Cl)c2)cc1)[C@@H](O)[C@H](O)C(=O)O`, the result in experiment [1] and in experiment [2] was inactive.
With `C=CC(=O)N[C@H](Cc1ccc(-c2cc(Cl)cc(Cl)c2)cc1)[C@@H](O)[C@H](O)C(=O)O`, the Activity in experiment [1] is 18900 to 19300 Da. For the same compound, the result in experiment [2] was inactive.
The corresponding values for `C=CC(=O)N[C@@H](/C=C/C(=O)OCC)Cc1ccc(-c2cc(Cl)cc(Cl)c2)cc1` are 18900 Da and “inactive”.
On to `CC(C)(C)OC(=O)N[C@H](C=O)Cc1ccc(-c2cc(Cl)cc(Cl)c2)cc1`, for which the Activity in experiment [1] was in the range of 18900 to 19300 Da. Besides, in experiment [2], the outcome was inactive.
The corresponding values for `C=CCC(=O)N[C@@H](Cc1ccc(-c2cc(Cl)cc(Cl)c2)cc1)[C@H](O)[C@@H](O)C(=O)O` are “inactive” and “inactive”.
`C=CC(=O)N[C@H](/C=C/C(=O)OCC)Cc1ccc(-c2cc(Cl)cc(Cl)c2)cc1`: the Activity in experiment [1] worked out at 18900 Da. Besides, the outcome in experiment [2] was inactive.
Consider `C=CCC(=O)N[C@H](Cc1ccc(-c2cc(Cl)cc(Cl)c2)cc1)[C@@H](O)[C@H](O)C(=O)OCC`, for which the result in experiment [1] and in experiment [2] was inactive.
Consider `C=CCC(=O)N[C@H](CO)Cc1ccc(-c2cc(Cl)cc(Cl)c2)cc1`, for which the result in experiment [1] and in experiment [2] was inactive.
As for `C=CCC(=O)N[C@@H](/C=C/C(=O)OCC)Cc1ccc(-c2cc(Cl)cc(Cl)c2)cc1`, the result in experiment [1] and in experiment [2] was inactive.
Consider `C=CC(=O)N[C@@H](Cc1ccc(-c2cc(Cl)cc(Cl)c2)cc1)[C@H](O)[C@@H](O)C(=O)OCC`, for which the Activity in experiment [1] was found to be 18900 Da. In addition, the outcome in experiment [2] was inactive.
The corresponding values for `C=CC(=O)N[C@@H](CO)Cc1ccc(-c2cc(Cl)cc(Cl)c2)cc1` are 18800 to 19200 Da and “inactive”.
Take `C=CC(=O)N[C@H](Cc1ccc(-c2cc(Cl)cc(Cl)c2)cc1)[C@@H](O)[C@H](O)C(=O)OCC`: in experiment [1], the Activity is 18900 Da. Further, the outcome in experiment [2] was inactive.
The corresponding values for `C=CC(=O)N[C@@H](Cc1ccc(-c2cc(Cl)cc(Cl)c2)cc1)[C@H](O)[C@@H](O)C(=O)O` are “inactive” and “inactive”.
The corresponding values for `C=CC(=O)N[C@@H](/C=C/C(=O)O)Cc1ccc(-c2cc(Cl)cc(Cl)c2)cc1` are 18900 Da and “inactive”.
The corresponding values for `CCOC(=O)/C=C/[C@H](Cc1ccc(-c2cc(Cl)cc(Cl)c2)cc1)NC(=O)OC(C)(C)C` are 18900 Da and “inactive”.
As for `C=CCC(=O)N[C@@H](/C=C/C(=O)O)Cc1ccc(-c2cc(Cl)cc(Cl)c2)cc1`, the result in experiment [1] and in experiment [2] was inactive.
For the compound `C=CCC(=O)N[C@H](/C=C/C(=O)OCC)Cc1ccc(-c2cc(Cl)cc(Cl)c2)cc1`, the result in experiment [1] and in experiment [2] was inactive.
With `C=CCC(=O)N[C@@H](CO)Cc1ccc(-c2cc(Cl)cc(Cl)c2)cc1`, the result in experiment [1] and in experiment [2] was inactive.
For `C=CC(=O)N[C@H](CO)Cc1ccc(-c2cc(Cl)cc(Cl)c2)cc1`, the Activity in experiment [3] worked out at 18800 Da; in experiment [4], 19200 Da; in experiment [5], 19500 Da. Besides, the outcome in experiment [2] was inactive.
